Publication PMC11035696, “Prospective de novo drug design with deep interactome learning” (Nature Communications, 2024)
Where “and” joins values, the source holds several entries; their conditions need not be identical. Equal entries are not always repeated.

What was measured:
Format in all cases: cell-based
[1] = target: T1, liver X receptor (LXR)α (Homo sapiens, UniProt Q13133); experiment: Nuclear receptor selectivity profiling, hybrid reporter gene assay, LXRα
T1 construct: LXRα (pFA-CMV-hLXRα-LBD[104], 1 μM TO901317); expressed in transfected cells; host or cells: HEK293T
T1 sequence (Q13133 209-447 limits assumed): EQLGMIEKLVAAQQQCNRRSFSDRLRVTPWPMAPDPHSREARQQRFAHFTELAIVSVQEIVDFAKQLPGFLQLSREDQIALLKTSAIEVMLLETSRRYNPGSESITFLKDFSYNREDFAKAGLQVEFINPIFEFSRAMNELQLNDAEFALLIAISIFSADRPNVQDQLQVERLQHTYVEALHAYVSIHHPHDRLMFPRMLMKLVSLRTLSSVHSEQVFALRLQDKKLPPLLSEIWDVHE
Experimental: (§1) PPAR activation was determined in uniform Gal4-hybrid reporter gene assays for the PPARα, PPARγ and PPARδ isoforms in HEK293T cells (German Collection of Microorganisms and Cell Culture GmbH, DSMZ) which were transiently transfected with pFR-Luc (Stratagene, La Jolla, CA, USA; reporter) and pRL-SV40 (Promega, Madison, WI, USA; internal control) and one pFA-CMV-hPPAR-LBD[97] clone, coding for the hinge region and ligand binding domain of the canonical isoform of human PPARα, PPARγ, PPARδ or respectively. Cells were cultured in Dulbecco’s modified Eagle’s medium (DMEM), high glucose supplemented with 10% fetal calf serum (FCS), sodium pyruvate (1 mM), penicillin (100 U ⋅ ml^-1), and streptomycin (100 μg ⋅ ml^-1) at 37 °C and 5% CO2 and seeded in 96-well plates (3 × 10^4 cells per well). After 24 h, medium was changed to Opti-MEM without supplements and cells were transiently transfected using Lipofectamine LTX reagent (Invitrogen) according to the manufacturer’s protocol. Five hours after transfection, cells were incubated with the test compounds in Opti-MEM supplemented with penicillin (100 U ⋅ ml^-1), streptomycin (100 μg ⋅ ml^-1) and 0.1% DMSO for 16 h before luciferase activity was measured using the Dual-Glo Luciferase Assay System (Promega) according to the manufacturer’s protocol on a Tecan Spark luminometer (Tecan Deutschland GmbH, Germany). Firefly luminescence was divided by Renilla luminescence and multiplied by 1000 resulting in relative light units (RLU) to normalize for transfection efficiency and cell growth. Fold activation was obtained by dividing the mean RLU of a test compound by the mean RLU of the untreated control. All samples were tested in at least three biologically independent experiments in duplicates. For dose-response curve fitting and calculation of EC50 values, the equation “[Agonist] versus response (variable slope—four parameters)” was used in GraphPad Prism (version 7.00, GraphPad Software, La Jolla, CA, USA) with fold activation data. The reference agonizts GW7647 (PPARα)[98],[99], pioglitazone (PPARγ)[100],[101] and L165,041 (PPARδ)[102],[103] were used to validate the assays and to monitor assay performance. Nuclear receptor selectivity profiling was performed with corresponding pFA-CMV-hNR-LBD clones and suitable reference agonizts on RARα (pFA-CMV-hRARα-LBD[104], 1 μM tretinoin), LXRα (pFA-CMV-hLXRα-LBD[104], 1 μM TO901317) and RXRα (pFA-CMV-h RXRα-LBD[105], 1 μM Bexarotene).

[2] = target: T2, human PPARδ (Homo sapiens, UniProt Q03181); experiment: Gal4-hybrid reporter gene assay, PPARδ activation; settings: result in words
T2 construct: expressed in transfected cells; host or cells: HEK293T
T2 sequence (Q03181 211-439 limits assumed): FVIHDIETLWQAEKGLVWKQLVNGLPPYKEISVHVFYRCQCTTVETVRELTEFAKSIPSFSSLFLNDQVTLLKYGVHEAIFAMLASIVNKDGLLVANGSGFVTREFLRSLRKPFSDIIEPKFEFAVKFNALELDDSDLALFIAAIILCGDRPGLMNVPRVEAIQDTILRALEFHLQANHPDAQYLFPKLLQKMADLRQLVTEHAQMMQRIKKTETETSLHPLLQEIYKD
Experimental: (§2) Compounds 1–3 were characterized in a hybrid reporter gene assay for their agoniztic effect on human nuclear receptors PPARα/γ/δ, RXRα, FXRα, RARα in HEK293T cells. Compound 1 was tested in an isothermal titration calorimetry (ITC) assay to measure direct binding affinity to the ligand-binding domain of PPARγ. ADME properties were measured in standardized assays at Roche.
PPAR activation was determined in uniform Gal4-hybrid reporter gene assays for the PPARα, PPARγ and PPARδ isoforms in HEK293T cells (German Collection of Microorganisms and Cell Culture GmbH, DSMZ) which were transiently transfected with pFR-Luc (Stratagene, La Jolla, CA, USA; reporter) and pRL-SV40 (Promega, Madison, WI, USA; internal control) and one pFA-CMV-hPPAR-LBD[97] clone, coding for the hinge region and ligand binding domain of the canonical isoform of human PPARα, PPARγ, PPARδ or respectively. Cells were cultured in Dulbecco’s modified Eagle’s medium (DMEM), high glucose supplemented with 10% fetal calf serum (FCS), sodium pyruvate (1 mM), penicillin (100 U ⋅ ml^-1), and streptomycin (100 μg ⋅ ml^-1) at 37 °C and 5% CO2 and seeded in 96-well plates (3 × 10^4 cells per well). After 24 h, medium was changed to Opti-MEM without supplements and cells were transiently transfected using Lipofectamine LTX reagent (Invitrogen) according to the manufacturer’s protocol. Five hours after transfection, cells were incubated with the test compounds in Opti-MEM supplemented with penicillin (100 U ⋅ ml^-1), streptomycin (100 μg ⋅ ml^-1) and 0.1% DMSO for 16 h before luciferase activity was measured using the Dual-Glo Luciferase Assay System (Promega) according to the manufacturer’s protocol on a Tecan Spark luminometer (Tecan Deutschland GmbH, Germany). Firefly luminescence was divided by Renilla luminescence and multiplied by 1000 resulting in relative light units (RLU) to normalize for transfection efficiency and cell growth. Fold activation was obtained by dividing the mean RLU of a test compound by the mean RLU of the untreated control. […]

[3] = target: T3, retinoic acid receptor (RAR)α (Homo sapiens, UniProt P10276); experiment: Nuclear receptor selectivity profiling, hybrid reporter gene assay, RARα
T3 construct: RARα (pFA-CMV-hRARα-LBD[104], 1 μM tretinoin); expressed in transfected cells; host or cells: HEK293T
T3 sequence (P10276 183-417 limits assumed): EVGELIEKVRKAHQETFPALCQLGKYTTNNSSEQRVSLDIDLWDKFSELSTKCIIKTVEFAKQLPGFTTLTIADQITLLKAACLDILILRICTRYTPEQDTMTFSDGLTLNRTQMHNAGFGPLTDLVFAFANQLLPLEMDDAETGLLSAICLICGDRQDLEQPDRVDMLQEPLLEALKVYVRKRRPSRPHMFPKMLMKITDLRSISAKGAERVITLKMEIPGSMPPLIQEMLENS
Experimental: as §2, §1

[4] = target: T4, retinoid X receptor (RXR)α (Homo sapiens, UniProt P19793); experiment: Nuclear receptor selectivity profiling, hybrid reporter gene assay, RXRα
T4 construct: RXRα (pFA-CMV-h RXRα-LBD[105], 1 μM Bexarotene); expressed in transfected cells; host or cells: HEK293T
T4 sequence (P19793 227-458 limits assumed): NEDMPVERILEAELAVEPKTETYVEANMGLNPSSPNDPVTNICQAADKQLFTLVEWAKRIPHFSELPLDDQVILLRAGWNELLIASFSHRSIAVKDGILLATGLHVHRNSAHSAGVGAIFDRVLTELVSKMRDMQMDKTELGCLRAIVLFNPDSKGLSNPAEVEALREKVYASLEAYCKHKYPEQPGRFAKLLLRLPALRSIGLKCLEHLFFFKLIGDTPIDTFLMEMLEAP
Experimental: as §2, §1

[5] = target: T5, human PPARα (Homo sapiens, UniProt Q07869); experiment: Gal4-hybrid reporter gene assay, PPARα activation; settings: for Fold PPARα activation: individual replicates, source data Fig. 5
T5 construct: expressed in transfected cells; host or cells: HEK293T
T5 sequence (Q07869 239-466 limits assumed): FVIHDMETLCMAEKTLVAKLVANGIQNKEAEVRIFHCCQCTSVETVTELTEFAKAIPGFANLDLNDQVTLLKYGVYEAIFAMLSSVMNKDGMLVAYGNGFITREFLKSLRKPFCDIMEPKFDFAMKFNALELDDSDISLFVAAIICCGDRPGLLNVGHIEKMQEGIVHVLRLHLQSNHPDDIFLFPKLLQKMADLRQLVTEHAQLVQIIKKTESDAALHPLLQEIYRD
Experimental: as §2, §1

[6] = target: T6, human PPARγ (Homo sapiens, UniProt P37231); experiment: Gal4-hybrid reporter gene assay, PPARγ activation
T6 construct: expressed in transfected cells; host or cells: HEK293T
T6 sequence (P37231 238-503 limits assumed): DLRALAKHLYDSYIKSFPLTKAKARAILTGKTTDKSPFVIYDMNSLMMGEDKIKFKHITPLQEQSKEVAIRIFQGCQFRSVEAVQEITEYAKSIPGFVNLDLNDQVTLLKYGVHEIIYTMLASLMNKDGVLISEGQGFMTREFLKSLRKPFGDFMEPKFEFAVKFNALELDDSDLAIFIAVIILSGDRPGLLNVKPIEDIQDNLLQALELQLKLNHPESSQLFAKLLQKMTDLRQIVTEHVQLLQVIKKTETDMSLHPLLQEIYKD
Experimental: as §2, §1

- LXRα reporter activation, replicate values (DMSO ctrl = 1,000) ([1]; 3 µM): 2,211 and 1,139 and 1,444
- LXRα reporter activation, replicate values (DMSO ctrl = 1,000) ([1]; 10 µM): 2,149 and 1,346 and 1,762
- activity on PPARδ [2]: no discernible activity
- RARα reporter activation, replicate values (DMSO ctrl = 1,000) ([3]; 3 µM): 1,594 and 0,817 and 1,542
- RARα reporter activation, replicate values (DMSO ctrl = 1,000) ([3]; 10 µM): 1,322 and 1,046 and 1,521
- RXRα reporter activation, replicate values (DMSO ctrl = 1,000) ([4]; 3 µM): 1,197 and 1,077 and 1,363
- RXRα reporter activation, replicate values (DMSO ctrl = 1,000) ([4]; 10 µM): 1,155 and 1,200 and 1,295
- Fold PPARα activation ([5]; conc. 0,00000100 M): 1,270 and 1,357 and 1,503
- Fold PPARα activation ([5]; conc. 0,00000300 M): 2,302 and 2,145 and 2,016
- Fold PPARα activation ([5]; conc. 0,00000600 M): 4,397 and 3,518 and 3,421
- Fold PPARα activation ([5]; conc. 0,00001000 M): 4,249 and 4,283 and 3,276
- Fold PPARα activation ([5]; conc. 1,00000000e-007 M): 0,978 and 1,133 and 1,009
- Fold PPARα activation ([5]; conc. 1,00000000e-008 M): 1,321 and 1,277 and 1,261
- Fold PPARα activation ([5]; conc. 3,00000000e-007 M): 1,112 and 1,105 and 1,170
- EC50 ([5]; hybrid reporter gene assay, HEK293T cells): 3400 ± 300 nM
- PPARγ reporter activation, replicate values (Figure 5) ([6]; conc. 0,00000200 M): 8,955 and 11,943 and 12,245 and 11,406
- PPARγ reporter activation, replicate values (Figure 5) ([6]; conc. 0,00000300 M): 17,358 and 14,143 and 17,954
- PPARγ reporter activation, replicate values (Figure 5) ([6]; conc. 1,00000000e-007 M): 0,766 and 0,976 and 1,313
- PPARγ reporter activation, replicate values (Figure 5) ([6]; conc. 1,00000000e-008 M): 0,785 and 0,961 and 1,208
- EC50 ([6]; hybrid reporter gene assay, HEK293T cells, read-out: EC50(PPARγ)): 1800 ± 100 nM
SMILES: COc1ccc(Oc2ccc3c(c2)ncn3CCOc2ccc(CCC(=O)O)cc2)cc1 [Compound 3]
- PPARγ reporter activation, replicate values (Figure 5) ([6]; conc. 0,00000100 M): 3,029 and 3,245 and 3,909 and 5,555 and 6,269 and 5,771 and 5,328
- PPARγ reporter activation, replicate values (Figure 5) ([6]; conc. 0,00001000 M): 19,221 and 19,629 and 17,043 and 19,534 and 21,221 and 20,328 and 19,624
- PPARγ reporter activation, replicate values (Figure 5) ([6]; conc. 3,00000000e-007 M): 1,068 and 1,571 and 1,294 and 2,247 and 2,063 and 1,947 and 1,524
